Experimental findings from patent US9718840B2, “Condensed 5-oxazolidinone derivative” (SUMITOMO DAINIPPON PHARMA CO., LTD., priority 2014, dated 2017) are described below.

Where two headings read alike, the source gives them in different places.

Data set [1] relates to Rabbit nail bleeding models. Briefly: Bleeding time evaluation test using rabbit nail bleeding model. The data set is classed as in vivo. The conditions noted are these: for Bleeding time: Experiment 1 (maximum 30 minutes), rabbit; for Bleeding time (fold-increase): Experiment 1, ratio to vehicle group average. The protocol: Rabbit nail bleeding models were prepared by a modification of the report of Wong et al. (Wong P C. et al., J. Thromb. Haemost. 7: 1313-1320 (2009)). Male rabbits (JW, 1.5 to 3.5 kg) were anesthetized by the inhalation of isoflurane (ISOFLU®, manufactured by DS Pharma Animal Health Co., Ltd.) (introduced anesthesia: 4%, continuous anesthesia: 2 to 3%).
For the intravenous administration of a test drug or a vehicle, an indwelling needle was inserted to the auricular vein, and the test drug or the vehicle was promptly intravenously administered (0.67 mL/kg) and then continuously intravenously administered (1 mL/kg/hr). One hour after the start of administration, three posterior toenails were cut and dipped in saline heated to approximately 37° C., and the bleeding time was measured. The bleeding time was defined as a time from the cutting to the arrest of bleeding, and an average value from the three nails was used. The measurement time was 30 minutes at the maximum for experiment 1 and 60 minutes at the maximum for experiment 2. In each experiment, if bleeding for 30 minutes or 60 minutes or longer was confirmed, the bleeding time was regarded as 30 minutes or 60 minutes.

Data set [2] has as its system Rabbit venous thrombus models. Briefly: In vivo antithrombotic effect evaluation test using rabbit (arteriovenous shunt). The conditions noted are these: prompt i.v. + continuous i.v. The protocol: Rabbit venous thrombus models were prepared by a modification of the report of Wong et al. (Wong P C. et al., J. Pharmacol. Exp. Ther. 292: 351-357 (2000)). Male rabbits (JW, 2 to 4 kg) were anesthetized by the inhalation of isoflurane (ISOFLU®, manufactured by DS Pharma Animal Health Co., Ltd.) (introduced anesthesia: 4%, continuous anesthesia: 1.5 to 2.5%). A tracheostomy tube was inserted to each rabbit, which was then ventilated using a respirator. For the intravenous administration of a test drug and blood collection, catheters were inserted to the right femoral vein and the right femoral artery, respectively. An arteriovenous shunt filled with saline was inserted to the carotid artery and the jugular vein. The arteriovenous shunt was prepared by connecting Atom extension tubes (4Fr) having lengths of 15 cm and 13 cm to the artery side and the vein side, respectively, of a polyethylene tube (length: 60 cm, outside diameter: 11.1 mm, inside diameter: 7.9 mm). Also, 4-0 silk thread having a length of 5 cm was indwelled in the arteriovenous shunt. Blood was sent for 30 minutes from the carotid artery to the jugular vein via the arteriovenous shunt. The shunt was removed, and the weight of the silk thread covered with thrombus was measured. The weight of the silk thread measured before the experiment was subtracted from the measured weight, and the obtained value was used as a wet thrombus weight. One hour before the open of the arteriovenous shunt, the test drug or a vehicle was promptly intravenously administered (0.67 mL/kg) and then continuously intravenously administered (1 mL/kg/hr). The continuous injection was continued throughout the experiment. Further, an existing anticoagulant dabigatran (antithrombin drug) and rivaroxaban (FXa inhibitor) were tested as control drugs.
In order to measure aPTT of blood samples as an index for the intrinsic coagulation pathway, blood was collected before administration and immediately before cessation of blood flow, and plasma was prepared using 3.2% sodium citrate. After incubation at 37° C. for 6 minutes, an STA reagent Cephascreen (for aPTT assay; manufactured by Roche Diagnostics K.K.) was added in an amount equal thereto, and the mixture was further incubated for 4 minutes. STA calcium chloride (manufactured by Roche Diagnostics K.K.) was added in an amount equal thereto, and the time required for coagulation was measured.
In order to measure prothrombin time (PT) of blood samples as an index for the extrinsic coagulation pathway, blood was collected before administration and immediately before cessation of blood flow, and plasma was prepared using 3.2% sodium citrate. After incubation at 37° C. for 10 minutes, Neoplastin Plus (for PT assay; manufactured by Roche Diagnostics K.K.) was added in a double amount, and the time required for coagulation was measured.

The next data set concerns the target Human FXIa (Homo sapiens, UniProt P03951). Briefly: In vitro activated factor XI (FXIa) inhibition test. The data set is classed as biochemical. Details: purchased Enzyme Research Laboratories.
The mark [3] stands for this setting: dose 0.03 + 0.045 mg/kg + mg/kg/h i.v.
Where [4] appears, read: dose 0.1 + 0.15 mg/kg + mg/kg/h i.v.
[5] abbreviates: dose 0.3 + 0.45 mg/kg + mg/kg/h i.v.
The mark [6] stands for this setting: dose 0.01 + 0.015 mg/kg + mg/kg/h.
[7] abbreviates: dose 0.03 + 0.045 mg/kg + mg/kg/h.
Setting [8] is: dose 0.1 + 0.15 mg/kg + mg/kg/h.
Where [9] appears, read: substrate S-2366, 37° C., 10 minutes, read-out: FXIa Inhibition activity IC50.

Sequence of Human FXIa (P03951 388-625 limits assumed): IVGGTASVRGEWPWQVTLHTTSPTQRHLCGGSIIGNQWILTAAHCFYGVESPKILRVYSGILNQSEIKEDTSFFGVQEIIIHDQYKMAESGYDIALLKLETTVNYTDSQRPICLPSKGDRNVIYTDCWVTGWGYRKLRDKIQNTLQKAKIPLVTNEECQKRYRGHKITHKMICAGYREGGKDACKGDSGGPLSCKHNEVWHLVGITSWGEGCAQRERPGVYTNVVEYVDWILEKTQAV
Sequence of Human FXIa (P03951 19-387 partner limits assumed): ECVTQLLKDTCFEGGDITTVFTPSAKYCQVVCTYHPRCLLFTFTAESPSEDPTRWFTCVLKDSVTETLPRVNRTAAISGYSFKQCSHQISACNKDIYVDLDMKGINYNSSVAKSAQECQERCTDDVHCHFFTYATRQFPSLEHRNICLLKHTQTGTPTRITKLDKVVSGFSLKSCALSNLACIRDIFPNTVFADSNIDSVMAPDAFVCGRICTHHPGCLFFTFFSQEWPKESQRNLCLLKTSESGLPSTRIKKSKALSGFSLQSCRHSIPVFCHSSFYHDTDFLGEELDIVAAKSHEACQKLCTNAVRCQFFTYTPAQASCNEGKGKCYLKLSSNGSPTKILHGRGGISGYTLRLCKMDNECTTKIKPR

Turning to `CCCCCCOC(=O)NC(=N)c1ccc(NCc2nc3cc(C(=O)N(CCC(=O)OCC)c4ccccn4)ccc3n2C)cc1` [Dabigatran etexilate], the “Bleeding time” value amounted to 1276 ± 353 s in data set [1] (setting [3]), 1800 ± 0 s in data set [1] (setting [4]) and 1800 ± 0 s in data set [1] (setting [5]). For the same molecule, the “Bleeding time (fold-increase)” value in data set [1] (setting [3]) is given as 2.7 ± 0.7 fold-increase; in data set [1] (setting [4]), 3.8 ± 0.0 fold-increase; in data set [1] (setting [5]), 3.8 ± 0.0 fold-increase. The entries for the “PT (ratio)” value in data set [2] (setting [6]), in data set [2] (setting [7]) and in data set [2] (setting [8]) were 1.07 ± 0.02 ratio, 1.23 ± 0.10 ratio and 2.29 ± 0.29 ratio, respectively. Besides, the Thrombus weight in data set [2] (setting [6]) worked out at 62 ± 18 mg; in data set [2] (setting [7]), 32 ± 9 mg; in data set [2] (setting [8]), 12 ± 4 mg. Further, the “aPTT (ratio)” value stood at 1.28 ± 0.07 ratio in data set [2] (setting [6]), 1.58 ± 0.15 ratio in data set [2] (setting [7]) and 2.34 ± 0.12 ratio in data set [2] (setting [8]).

Broadly, the IC50 is the midpoint of a concentration-inhibition curve. For the molecule `NC[C@H]1CC[C@H](C(=O)N2CC[C@@H](C3CCCCC3)[C@H]2C(=O)Nc2ccc3[nH]c(C(=O)O)cc3c2)CC1` [Example 23], the IC50 at Human FXIa (setting [9]) amounted to 3 nM.

Take `N[C@H](CF)[C@H]1CC[C@H](C(=O)N2CC[C@@H](N3CCCCC3)[C@H]2C(=O)Nc2ccc3[nH]c(C(=O)O)cc3c2)CC1` [Example 25, 5-[(2S,3R)-1-({trans-4-[(1S)-1-Amino-2-fluoroethyl]cyclohexyl}carbonyl)-3-(piperidin-1-yl)pyrrolidine-2-carboxamide]-1H-indole-2-carboxylic acid 2-trifluoroacetate]: the IC50 at Human FXIa (setting [9]) amounted to 19 nM.

In the case of `NC(CF)[C@H]1CC[C@H](C(=O)N2CC[C@@H](C3CCCCC3)[C@H]2C(=O)Nc2ccc3[nH]c(C(=O)O)c(F)c3c2)CC1` (some centres unmarked) [Reference Example 36], at Human FXIa (setting [9]), the IC50 is 45 nM.

Take `CCc1c(C(=O)O)[nH]c2ccc(NC(=O)[C@@H]3[C@H](C4CCCCC4)CCN3C(=O)[C@H]3CC[C@H]([C@H](N)CF)CC3)cc12` [Reference Example 42]: the IC50 at Human FXIa (setting [9]) was found to be 91 nM.

On Human FXIa, `N[C@H](CF)[C@H]1CC[C@H](C(=O)N2CC[C@@H](C3CCCCC3)[C@H]2C(=O)Nc2ccc3[nH]c(C(=O)O)c(Cl)c3c2)CC1` [compound 37] gave an IC50 of 18 nM.

As to `NC(CF)[C@H]1CC[C@H](C(=O)N2CC[C@@H](c3ccc(F)cc3)[C@H]2C(=O)Nc2ccc3[nH]c(C(=O)O)cc3c2)CC1` (some centres unmarked) [compound 38], the IC50 on Human FXIa (setting [9]) stood at 30 nM.

For the molecule `Cc1c(C(=O)O)[nH]c2ccc(NC(=O)[C@@H]3[C@H](C4CCCCC4)CCN3C(=O)[C@H]3CC[C@H]([C@H](N)CF)CC3)cc12` [compound 39], the IC50 at Human FXIa (setting [9]) worked out at 145 nM.

For the molecule `NC[C@H]1CC[C@H](C(=O)N2CC[C@@H](c3ccccc3)[C@H]2C(=O)Nc2ccc3[nH]c(C(=O)O)cc3c2)CC1` [compound 40], the IC50 at Human FXIa (setting [9]) amounted to 9 nM.

Take `COc1ccc([C@H]2CCN(C(=O)[C@H]3CC[C@H]([C@H](N)CF)CC3)[C@@H]2C(=O)Nc2ccc3[nH]c(C(=O)O)cc3c2)cc1` [compound 43]: on Human FXIa (setting [9]), the IC50 is 76 nM.

Turning to `N[C@H](CF)[C@H]1CC[C@H](C(=O)N2CC[C@H](c3ccc(F)cc3)[C@H]2C(=O)Nc2ccc3[nH]c(C(=O)O)cc3c2)CC1` [compound 44], at Human FXIa (setting [9]), the IC50 turned out to be 33 nM.

As for `N[C@H](CF)[C@H]1CC[C@H](C(=O)N2CC[C@H](c3ccccc3)[C@H]2C(=O)Nc2ccc3[nH]c(C(=O)O)c(Cl)c3c2)CC1` [compound 45], the IC50 at Human FXIa (setting [9]) stood at 60 nM.
